Assay results from ChEMBL document CHEMBL2074339, “The use of a dendrimer-propranolol prodrug to bypass efflux transporters and enhance oral bioavailability” (J Control Release, 2004).

What was measured:
[1] = target: T1, ATP-dependent translocase ABCB1 (Homo sapiens, UniProt P08183); test: TP_TRANSPORTER: transepithelial transport in Caco2 cells; assay type: functional, cell-based; details: caco-2
[2] = target: T1, ATP-dependent translocase ABCB1; test: TP_TRANSPORTER: transepithelial transport of propranolol in Caco2 cells; assay type: functional, cell-based; details: caco-2

T1 sequence (P08183 whole entry): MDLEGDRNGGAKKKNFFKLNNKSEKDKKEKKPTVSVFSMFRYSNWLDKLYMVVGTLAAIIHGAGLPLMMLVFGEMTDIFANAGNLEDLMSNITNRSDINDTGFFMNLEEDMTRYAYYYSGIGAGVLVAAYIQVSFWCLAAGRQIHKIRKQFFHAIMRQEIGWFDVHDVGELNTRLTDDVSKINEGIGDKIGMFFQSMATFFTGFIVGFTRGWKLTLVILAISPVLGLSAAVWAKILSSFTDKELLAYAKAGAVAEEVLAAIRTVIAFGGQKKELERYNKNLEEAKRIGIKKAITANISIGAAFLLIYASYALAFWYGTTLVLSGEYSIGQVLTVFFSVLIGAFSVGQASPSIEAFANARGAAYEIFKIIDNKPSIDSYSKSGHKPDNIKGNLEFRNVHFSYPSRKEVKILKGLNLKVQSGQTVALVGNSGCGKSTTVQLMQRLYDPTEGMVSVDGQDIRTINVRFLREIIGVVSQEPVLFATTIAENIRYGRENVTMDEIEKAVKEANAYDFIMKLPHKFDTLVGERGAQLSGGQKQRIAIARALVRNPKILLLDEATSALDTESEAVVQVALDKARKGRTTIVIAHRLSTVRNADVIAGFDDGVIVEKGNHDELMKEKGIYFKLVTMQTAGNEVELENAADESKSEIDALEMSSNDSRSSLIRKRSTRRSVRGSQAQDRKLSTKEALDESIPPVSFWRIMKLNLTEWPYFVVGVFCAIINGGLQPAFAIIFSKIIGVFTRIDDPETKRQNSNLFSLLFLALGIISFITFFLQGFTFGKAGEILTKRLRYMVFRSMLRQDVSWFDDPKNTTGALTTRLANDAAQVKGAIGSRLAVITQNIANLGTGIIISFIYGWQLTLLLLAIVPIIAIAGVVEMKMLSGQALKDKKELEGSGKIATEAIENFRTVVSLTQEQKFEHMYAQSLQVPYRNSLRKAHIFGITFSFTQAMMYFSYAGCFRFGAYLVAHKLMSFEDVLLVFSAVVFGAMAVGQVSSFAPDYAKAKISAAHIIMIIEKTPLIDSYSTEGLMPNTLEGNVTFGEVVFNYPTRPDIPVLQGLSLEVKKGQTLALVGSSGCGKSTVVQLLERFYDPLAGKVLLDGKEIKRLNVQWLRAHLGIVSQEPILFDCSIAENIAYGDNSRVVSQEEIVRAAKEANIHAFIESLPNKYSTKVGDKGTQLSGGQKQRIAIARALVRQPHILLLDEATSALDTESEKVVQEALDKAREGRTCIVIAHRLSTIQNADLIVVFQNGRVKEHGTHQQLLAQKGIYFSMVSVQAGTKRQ

| Compound | Activity [1] | Activity [2] |
| --- | --- | --- |
| CC(C)NCC(O)COc1cccc2ccccc12 (configuration not stated) [PROPRANOLOL] | substrate [+] | – |
| G3 PAMAM DENDRIMER | – | is not an inhibitor [-] |
